Broadly, the EC50 is the concentration giving half of the maximal effect. Low values mean greater potency, high ones weaker potency.

The source of these data is US20120122780A1 (Ardea Biosciences Inc., priority 2009, published 2012).

This assay has as its target T1, hURAT1 Transporter (Homo sapiens, UniProt Q96S37).
T1 construct: Full-length human URAT1 gene (SLC22Al2) was subcloned from plasmid pCMV6-XL5 (Origene) into eukaryotic expression plasmid pCMV6/Neo; expressed in transfected cells
T1 sequence (Q96S37 1-553): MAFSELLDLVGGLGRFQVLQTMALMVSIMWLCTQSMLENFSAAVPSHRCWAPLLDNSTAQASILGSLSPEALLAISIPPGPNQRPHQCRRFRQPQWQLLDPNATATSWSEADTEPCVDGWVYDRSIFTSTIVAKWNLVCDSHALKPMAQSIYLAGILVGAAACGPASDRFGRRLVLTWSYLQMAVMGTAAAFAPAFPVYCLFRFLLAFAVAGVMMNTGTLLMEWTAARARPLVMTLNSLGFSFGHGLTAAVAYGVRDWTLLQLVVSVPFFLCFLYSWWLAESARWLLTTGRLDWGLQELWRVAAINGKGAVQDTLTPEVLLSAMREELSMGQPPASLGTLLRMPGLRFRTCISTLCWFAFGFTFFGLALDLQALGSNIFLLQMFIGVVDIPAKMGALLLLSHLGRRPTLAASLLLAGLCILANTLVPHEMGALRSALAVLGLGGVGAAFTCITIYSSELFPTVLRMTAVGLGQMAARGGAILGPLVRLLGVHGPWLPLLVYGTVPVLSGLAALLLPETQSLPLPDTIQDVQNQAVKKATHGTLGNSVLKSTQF
Nature of the assay: Uric Acid Uptake Assay (URAT-1 EC50). The format is cell-based. To be noted: HEK293/urat1 cells, C14 uric acid 40 μM, 10 minutes at room temperature. The text has this: Creation of Stable Cell Lines Expressing hURAT1 Transporter: Full-length human URAT1 gene (SLC22Al2) was subcloned from plasmid pCMV6-XL5 (Origene) into eukaryotic expression plasmid pCMV6/Neo (Origene) using Not I restriction sites. Gene sequencing confirmed the sequence of hURAT1 as outlined in Genbank (Accession #NM_144585.2). HEK293 human embryonic kidney cells (ATCC# CRL-1573) were propagated in EMEM tissue culture medium as described by ATCC in an atmosphere of 5% CO2 and 95% air. Transfections of HEK293 cells with the pCMV6/Neo/URAT1 construct were performed using L2000 transfection reagent (Invitrogen) as described by the manufacturer. After 24 h the transfected cells were split into 10 cm tissue culture plates and grown for 1 day after which the medium was replaced with fresh growth medium containing G418 (Gibco) at 0.5 mg/ml final concentration. Drug-resistant colonies were selected after approximately 8 days and then tested for ^14C-uric acid transport activity. The HEK293/urat1 cells are plated on Poly-D-Lysine Coated 96-well Plates at a density of 75,000 cells per well. Cells were grown overnight (20-26 hours) at 37° C. in an incubator. Plates were allowed to come to room temperature and media was washed out with one wash of 250 μl of Wash Buffer (125 mM Na Gluconate, 10 mM Hepes ph 7.3). Compound or vehicle is added in assay buffer with C14 Uric Acid for a final concentration of 40 μM Uric Acid with a specific activity of 54 mCi/mmol Assay Buffer is 125 mM Sodium Gluconate, 4.8 mM Potassium Gluconate, 1.2 mM Potassium phosphate, monobasic, 1.2 mM magnesium sulfate, 1.3 mM Ca Gluconate, 5.6 mM Glucose, 25 mM HEPES, pH 7.3. Plates were incubated at room temperature for 10 minutes then washed 3 times with 50 μWash Buffer and 3 times with 250 μl Wash Buffer. Microscint 20 Scintillation Fluid was added and plates were incubated overnight at 45° C. to equilibrate. Plates are then read on the TopCount Plate Reader and an EC50 value generated. (See Enomoto et al, Nature, 2002, 417, 447-451 and Anzai et al, J. Biol. Chem., 2004, 279, 45942-45950.)
Compounds prepared as described above, were examined according to the procedure described herein and EC50 values generated. The table below summarizes the activity of the compounds in the Uric Acid Uptake Assay, wherein

The compound `CCOC(=O)CSc1nnnn1-c1cccc2ccccc12` [6-1 (step C), Ethyl 2-(1-(naphthalen-1-yl)-1H-tetrazol-5-ylthio) acetate] showed an EC50 of 5 to 20 µM.

As to `O=C(O)CSc1nnnn1-c1cccc2ccccc12` [6-1 (step D), 2-(1-(naphthalen-1-yl)-1H-tetrazol-5-ylthio)acetic acid], the EC50 is over 20 µM.

On to `O=C(O)CSc1cnnn1-c1cccc2ccccc12` [Example 5A-1], for which the EC50 was over 20 µM.

The compound `CC(C)(Oc1nnnn1-c1cccc2ccccc12)C(=O)O` [Example 6-3] showed an EC50 of over 20 µM.
